Measured values reported in patent US20250034089A1, “TETRAHYDROCARBAZOLE COMPOUND, AND PHARMACEUTICAL COMPOSITION AND USE THEREOF” (NAIN BIOTECH (HANGZHOU) CO., LTD., priority 2021, published 2025).

Key:
OCT4 protein = molecular target: T1, OCT4 protein (Homo sapiens, UniProt Q01860); test: Inhibitory effect on OCT4 protein in HeLa cells (Western blot); type: cell-based; conditions: FIG. 2
T1 construct: HeLa cell line 3A11 with endogenous high expression of OCT4; endogenous in cells; host or cells: HeLa cell line 3A11
From the text: • 1) Cell source: HeLa cell line 3A11 with endogenous high expression of OCT4, constructed by the inventor's laboratory (Zhou Y et al. Endogenous authentic OCT4A proteins directly regulate FOS/AP-1 transcription in physiological cancer cells. Cell Death Dis. 2018, 9:585). • 2) Cell culture and passage: All of the above cells were adherently cultured in complete culture medium [to a 6-cm culture dish (#430166, Corning) or T75 culture bottle (#3276, Corning) containing DMEM high-sugar basal medium (#SH30243.01B, HyClone) was added a final concentration of 10% FBS (#1101-500, Shanghai Pufei) and Penicillin-Streptomycin dual antibody (#SV30010, HyClone)]. The culture dish (bottle) was placed in a cell culture incubator (#3111, Thermo Fisher Scientific) at 37° C., 5% CO2, and saturated humidity. […] The supernatant was discarded, and the cell clumps were resuspended with fresh complete culture medium, blown into single cells again, passaged and inoculated into new culture dishes (bottles) in a ratio of 1:3-1:6, the complete culture medium was supplemented, and then placed in a cell culture incubator at 37° C. and 5% CO2 for culture. • 3) Cell dosing treatment: The above-mentioned HeLa cells were digested, counted, and inoculated into each well of the 96 well cell culture plate (#3988, Corning) at a density of 5000 cells/200 μl culture medium. […]

[1] = test system: HcerEpic (human normal uterine epithelial cells); test: In vitro proliferation inhibition (CCK-8), HcerEpic; type: cell-based; conditions: Epithelial cell, 72 hours, CCK-8, average of three wells in one test
From the text: • 1) Cell sources: HeLa (human cervical cancer cells), CaSki (human cervical cancer intestinal metastasis cells), Huh7 (human liver cancer cells), HepG2 (human liver cancer cells), Hep3B (human liver cancer cells) were purchased from the Chinese Academy of Sciences cell bank (Shanghai); LO2 (human normal liver cells) and HcerEpic (human normal uterine epithelial cells) were from ATCC. • 2) Cell culture and passage: The cell culture and passage method is the same as that described in “The inhibitory effect of compounds on the OCT4 protein in tumor stem cells (CSC)”. • 3) Cell dosing treatment: The each type of cells mentioned above was digested, counted, and inoculated in each well of the 96 well cell culture plate (#3988, Corning) at a density of 5000 cells/200 μl culture medium. […] Then, the original culture medium was replaced with complete culture medium containing gradient diluted KZT-A5 (each concentration with 3 repeated wells) as well as DMSO (#D5879, Sigma Aldrich) solvent control, and they are cultured for additional 72 hours. • 4) Pharmacodynamic test and statistics: First, the morphology of cells treated with the above compounds was observed, photographed and recorded using an inverted phase contrast microscope (X71, Olympus). […] Then the OD450 nm absorbance value (OD value) was measured on a multifunctional enzyme-linked immunosorbent assay (168-1130, Bio Rad). […]

T1 sequence (Q01860 whole entry): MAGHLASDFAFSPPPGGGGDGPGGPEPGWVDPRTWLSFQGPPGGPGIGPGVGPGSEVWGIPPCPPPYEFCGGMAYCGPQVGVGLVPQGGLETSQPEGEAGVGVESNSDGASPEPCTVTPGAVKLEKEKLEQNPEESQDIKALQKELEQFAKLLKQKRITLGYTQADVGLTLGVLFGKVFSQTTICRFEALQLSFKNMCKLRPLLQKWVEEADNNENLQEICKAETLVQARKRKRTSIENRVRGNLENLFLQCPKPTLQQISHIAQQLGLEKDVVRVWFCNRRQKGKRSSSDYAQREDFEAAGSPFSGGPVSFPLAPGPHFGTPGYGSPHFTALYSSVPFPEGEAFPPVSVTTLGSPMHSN

## COc1cc(/C=C2\CCc3c([nH]c4ccc(C)cc34)C2=O)ccc1O [KZT-A5]
OCT4 protein; HeLa 3A11, 10 μM vs 100 μM
  dose dependence of inhibition of OCT4 protein expression: dose-dependently inhibit the expression of OCT4 protein
OCT4 protein; HeLa cell line 3A11, 48-72 hours
  inhibitory effect on OCT4 protein (downregulation): most significant effect in downregulating OCT4 protein
[1]
  IC50: > 100 µM
